{"source": "paper doi:10.1101/2025.10.08.681114v1", "about": "(biorxiv, 2025)", "target": "CHI3L1 (hCHI3L1, CHI3L1-His, YKL-40) (Homo sapiens, UniProt P36222)", "sequence (P36222 22-383)": "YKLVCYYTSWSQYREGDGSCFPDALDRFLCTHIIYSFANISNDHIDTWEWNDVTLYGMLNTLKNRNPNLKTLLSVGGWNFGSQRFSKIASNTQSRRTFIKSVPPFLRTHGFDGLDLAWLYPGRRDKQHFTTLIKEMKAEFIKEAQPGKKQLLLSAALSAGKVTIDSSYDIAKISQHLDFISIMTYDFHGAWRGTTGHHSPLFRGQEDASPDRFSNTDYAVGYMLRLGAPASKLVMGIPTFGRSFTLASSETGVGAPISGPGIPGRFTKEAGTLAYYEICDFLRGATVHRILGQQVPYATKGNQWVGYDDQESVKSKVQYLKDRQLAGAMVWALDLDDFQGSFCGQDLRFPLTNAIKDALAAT", "test": "microscale thermophoresis dose-response", "format": "binding"}
{"smiles": "COc1cc2cc(C3CCN(C(=O)c4csc(C)c4)CC3)ncc2cc1C", "note": "[A9, compound A9]", "values": [{"measurement": "Kd", "value": "182 ± 18", "unit": "µM"}]}
